pIC50: −log10 of the molar value.
Tests used:
[1] = molecular target: Serine/threonine-protein kinase mTOR (Homo sapiens, UniProt P42345); test: Inhibition of human mTOR measured after 30 mins in presence of ATP by Lanthascreen TR-FRET assay
[2] = molecular target: Phosphatidylinositol 4,5-bisphosphate 3-kinase catalytic subunit alpha isoform (Homo sapiens, UniProt P42336); test: Inhibition of PI3K alpha (unknown origin)
Chain of Phosphatidylinositol 4,5-bisphosphate 3-kinase catalytic subunit alpha isoform (P42336 whole entry, canonical isoform): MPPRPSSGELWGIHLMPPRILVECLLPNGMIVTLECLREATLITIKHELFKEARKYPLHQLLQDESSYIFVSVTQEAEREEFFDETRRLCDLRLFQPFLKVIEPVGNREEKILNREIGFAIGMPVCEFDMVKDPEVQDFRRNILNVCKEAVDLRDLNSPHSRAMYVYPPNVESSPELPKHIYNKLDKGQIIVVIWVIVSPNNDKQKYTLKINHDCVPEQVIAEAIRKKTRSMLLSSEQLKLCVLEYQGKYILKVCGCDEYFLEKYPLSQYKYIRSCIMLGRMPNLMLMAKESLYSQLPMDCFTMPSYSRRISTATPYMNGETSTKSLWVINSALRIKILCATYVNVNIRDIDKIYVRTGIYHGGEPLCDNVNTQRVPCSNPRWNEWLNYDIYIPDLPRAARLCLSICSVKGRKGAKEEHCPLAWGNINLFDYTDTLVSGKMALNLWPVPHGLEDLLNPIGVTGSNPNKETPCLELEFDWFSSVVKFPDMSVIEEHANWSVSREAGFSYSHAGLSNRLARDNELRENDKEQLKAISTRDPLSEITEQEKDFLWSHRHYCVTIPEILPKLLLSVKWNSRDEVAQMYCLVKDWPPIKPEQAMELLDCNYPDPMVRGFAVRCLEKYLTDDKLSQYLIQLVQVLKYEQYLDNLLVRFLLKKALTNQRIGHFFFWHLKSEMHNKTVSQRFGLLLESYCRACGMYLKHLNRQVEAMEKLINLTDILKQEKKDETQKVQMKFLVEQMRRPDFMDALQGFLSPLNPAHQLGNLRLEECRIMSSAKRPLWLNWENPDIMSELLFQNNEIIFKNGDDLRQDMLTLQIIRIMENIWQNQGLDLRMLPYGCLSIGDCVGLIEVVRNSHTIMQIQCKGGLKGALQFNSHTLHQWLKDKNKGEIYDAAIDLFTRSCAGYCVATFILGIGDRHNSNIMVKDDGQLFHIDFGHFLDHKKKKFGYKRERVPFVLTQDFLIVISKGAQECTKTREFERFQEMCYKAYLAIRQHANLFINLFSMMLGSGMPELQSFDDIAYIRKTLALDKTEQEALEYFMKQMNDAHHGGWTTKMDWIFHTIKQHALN

| Compound | pIC50 [1] | pIC50 [2] |
| --- | --- | --- |
| CNC(=O)Nc1ccc(-c2ncc3c(n2)N2CCOCC2C(=O)N3)cc1 (configuration not stated) | 6.50 | 7.50 |
| O=C(Nc1ccc(-c2nc(N3CCOCC3)c3c(n2)C2(CC2)OC3)cc1)NC1CC1 | > 7.50 |  |
| CNC(=O)Nc1ccc(-c2ncc3c(n2)N2CCOCC2C(=O)N3CC2CC2)cc1 (configuration not stated) | 7.50 | 7.70 |
| CNC(=O)Nc1ccc(-c2ncc3c(n2)N2CCOC[C@@]2(C)C(=O)N3CC2CC2)cc1 | 8.10 | 7.10 |

Reference: ChEMBL document CHEMBL4359925, “Rational discovery of a highly novel and selective mTOR inhibitor” (Bioorg Med Chem Lett, 2019)
